Test results: the kinase profiling compilation of Christmann-Franck et al. (2016)
Values joined by “and” are separate entries in the source; they are usually repeats but may differ in a detail not shown here. Identical values can stand only once.

Columns and labels:
Test in all cases: radiometric filter-binding kinase assay, Kinase HotSpot
Conditions in all cases: compound 0.5 µM; ATP 10 µM
[1] = target: ACVR1B (human) (UniProt P36896)
[2] = target: ADRBK1 (human) (UniProt P25098)
[3] = target: AXL (human) (UniProt P30530)
[4] = target: BMX (human) (UniProt P51813)
[5] = target: CAMK4 (human) (UniProt Q16566)
[6] = target: CDK1 CCNA2 (human) (UniProt P06493+P20248)
[7] = target: CHEK2 (human) (UniProt O96017)
[8] = target: CSK (human) (UniProt P41240)
[9] = target: DAPK3 (human) (UniProt O43293)
[10] = target: DDR2 (human) (UniProt Q16832)
[11] = target: DYRK2 (human) (UniProt Q92630)
[12] = target: DYRK4 (human) (UniProt Q9NR20)
[13] = target: EPHA1 (human) (UniProt P21709)
[14] = target: EPHA8 (human) (UniProt P29322)
[15] = target: GRK4 (human) (UniProt P32298)
[16] = target: GRK7 (human) (UniProt Q8WTQ7)
[17] = target: GSG2 (human) (UniProt Q8TF76)
[18] = target: GSK3B (human) (UniProt P49841)
[19] = target: ITK (human) (UniProt Q08881)
[20] = target: MAP2K2 (human) (UniProt P36507)
MAP2K2 (human), sequence (P36507 whole entry, looked up): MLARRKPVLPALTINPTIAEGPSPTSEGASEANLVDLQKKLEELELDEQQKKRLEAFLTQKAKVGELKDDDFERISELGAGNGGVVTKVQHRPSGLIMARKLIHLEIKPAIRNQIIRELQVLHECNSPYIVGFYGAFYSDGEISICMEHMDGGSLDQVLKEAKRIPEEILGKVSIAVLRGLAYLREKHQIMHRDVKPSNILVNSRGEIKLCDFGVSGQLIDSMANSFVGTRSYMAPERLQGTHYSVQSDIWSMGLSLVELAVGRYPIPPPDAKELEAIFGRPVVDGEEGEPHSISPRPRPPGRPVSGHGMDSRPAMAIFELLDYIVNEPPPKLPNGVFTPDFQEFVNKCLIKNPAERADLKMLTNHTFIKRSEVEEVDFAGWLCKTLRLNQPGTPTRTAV

[21] = target: MAP3K11 (human) (UniProt Q16584)
[22] = target: MAP3K5 (human) (UniProt Q99683)
[23] = target: MAP3K9 (human) (UniProt P80192)
[24] = target: MAPK1 (human) (UniProt P28482)
[25] = target: MELK (human) (UniProt Q14680)
[26] = target: MERTK (human) (UniProt Q12866)
[27] = target: NEK7 (human) (UniProt Q8TDX7)
NEK7 (human), sequence (Q8TDX7 whole entry, looked up): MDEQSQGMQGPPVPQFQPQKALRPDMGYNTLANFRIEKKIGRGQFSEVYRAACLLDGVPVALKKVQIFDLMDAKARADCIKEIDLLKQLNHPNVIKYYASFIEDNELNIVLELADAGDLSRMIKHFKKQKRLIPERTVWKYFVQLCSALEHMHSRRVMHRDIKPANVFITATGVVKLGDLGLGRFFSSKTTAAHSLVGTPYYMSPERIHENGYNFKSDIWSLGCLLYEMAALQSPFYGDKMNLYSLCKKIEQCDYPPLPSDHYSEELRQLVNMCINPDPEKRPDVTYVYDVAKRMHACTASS

[28] = target: NTRK1 (human) (UniProt P04629)
[29] = target: PHKG1 (human) (UniProt Q16816)
[30] = target: PLK1 (human) (UniProt P53350)
PLK1 (human), sequence (P53350 whole entry, looked up): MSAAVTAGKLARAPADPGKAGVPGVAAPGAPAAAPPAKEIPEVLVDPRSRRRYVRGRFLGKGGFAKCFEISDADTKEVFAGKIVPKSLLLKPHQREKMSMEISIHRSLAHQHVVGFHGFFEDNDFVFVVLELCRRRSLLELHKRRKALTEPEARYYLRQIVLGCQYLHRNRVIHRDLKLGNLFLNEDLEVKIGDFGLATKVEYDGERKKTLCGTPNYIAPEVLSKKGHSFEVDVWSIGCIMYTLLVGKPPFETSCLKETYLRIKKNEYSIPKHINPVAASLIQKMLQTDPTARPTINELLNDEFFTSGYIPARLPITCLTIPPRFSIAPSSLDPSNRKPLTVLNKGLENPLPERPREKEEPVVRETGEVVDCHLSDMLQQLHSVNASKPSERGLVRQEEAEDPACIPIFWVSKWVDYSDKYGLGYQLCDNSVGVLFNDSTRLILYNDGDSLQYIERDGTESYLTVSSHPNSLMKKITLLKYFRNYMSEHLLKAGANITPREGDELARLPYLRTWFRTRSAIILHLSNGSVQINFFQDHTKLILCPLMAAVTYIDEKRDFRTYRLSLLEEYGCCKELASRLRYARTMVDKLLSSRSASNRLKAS

[31] = target: PRKCZ (human) (UniProt Q05513)
[32] = target: PRKD3 (human) (UniProt O94806)
[33] = target: PRKG1 (human) (UniProt Q13976)
PRKG1 (human), sequence (Q13976 whole entry, looked up): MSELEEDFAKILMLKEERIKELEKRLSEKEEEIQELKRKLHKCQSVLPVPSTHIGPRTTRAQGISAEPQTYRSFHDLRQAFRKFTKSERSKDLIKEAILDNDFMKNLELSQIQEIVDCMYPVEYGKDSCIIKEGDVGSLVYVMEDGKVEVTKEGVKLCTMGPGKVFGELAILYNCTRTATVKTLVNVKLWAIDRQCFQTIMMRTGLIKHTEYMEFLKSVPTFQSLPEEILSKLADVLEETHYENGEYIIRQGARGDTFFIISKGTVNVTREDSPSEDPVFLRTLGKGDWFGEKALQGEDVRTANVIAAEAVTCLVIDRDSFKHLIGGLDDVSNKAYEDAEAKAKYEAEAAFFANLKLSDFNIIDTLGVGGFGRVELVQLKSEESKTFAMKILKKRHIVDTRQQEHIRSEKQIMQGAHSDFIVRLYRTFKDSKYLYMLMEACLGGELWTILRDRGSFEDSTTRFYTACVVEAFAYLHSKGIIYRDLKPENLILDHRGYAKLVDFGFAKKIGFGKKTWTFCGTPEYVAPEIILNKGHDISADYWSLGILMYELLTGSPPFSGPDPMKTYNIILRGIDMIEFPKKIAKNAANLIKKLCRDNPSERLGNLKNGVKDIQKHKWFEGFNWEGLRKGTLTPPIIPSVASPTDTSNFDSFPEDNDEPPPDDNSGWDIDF

[34] = target: PTK6 (human) (UniProt Q13882)
[35] = target: ROS1 (human) (UniProt P08922)
ROS1 (human), sequence (P08922 whole entry, looked up): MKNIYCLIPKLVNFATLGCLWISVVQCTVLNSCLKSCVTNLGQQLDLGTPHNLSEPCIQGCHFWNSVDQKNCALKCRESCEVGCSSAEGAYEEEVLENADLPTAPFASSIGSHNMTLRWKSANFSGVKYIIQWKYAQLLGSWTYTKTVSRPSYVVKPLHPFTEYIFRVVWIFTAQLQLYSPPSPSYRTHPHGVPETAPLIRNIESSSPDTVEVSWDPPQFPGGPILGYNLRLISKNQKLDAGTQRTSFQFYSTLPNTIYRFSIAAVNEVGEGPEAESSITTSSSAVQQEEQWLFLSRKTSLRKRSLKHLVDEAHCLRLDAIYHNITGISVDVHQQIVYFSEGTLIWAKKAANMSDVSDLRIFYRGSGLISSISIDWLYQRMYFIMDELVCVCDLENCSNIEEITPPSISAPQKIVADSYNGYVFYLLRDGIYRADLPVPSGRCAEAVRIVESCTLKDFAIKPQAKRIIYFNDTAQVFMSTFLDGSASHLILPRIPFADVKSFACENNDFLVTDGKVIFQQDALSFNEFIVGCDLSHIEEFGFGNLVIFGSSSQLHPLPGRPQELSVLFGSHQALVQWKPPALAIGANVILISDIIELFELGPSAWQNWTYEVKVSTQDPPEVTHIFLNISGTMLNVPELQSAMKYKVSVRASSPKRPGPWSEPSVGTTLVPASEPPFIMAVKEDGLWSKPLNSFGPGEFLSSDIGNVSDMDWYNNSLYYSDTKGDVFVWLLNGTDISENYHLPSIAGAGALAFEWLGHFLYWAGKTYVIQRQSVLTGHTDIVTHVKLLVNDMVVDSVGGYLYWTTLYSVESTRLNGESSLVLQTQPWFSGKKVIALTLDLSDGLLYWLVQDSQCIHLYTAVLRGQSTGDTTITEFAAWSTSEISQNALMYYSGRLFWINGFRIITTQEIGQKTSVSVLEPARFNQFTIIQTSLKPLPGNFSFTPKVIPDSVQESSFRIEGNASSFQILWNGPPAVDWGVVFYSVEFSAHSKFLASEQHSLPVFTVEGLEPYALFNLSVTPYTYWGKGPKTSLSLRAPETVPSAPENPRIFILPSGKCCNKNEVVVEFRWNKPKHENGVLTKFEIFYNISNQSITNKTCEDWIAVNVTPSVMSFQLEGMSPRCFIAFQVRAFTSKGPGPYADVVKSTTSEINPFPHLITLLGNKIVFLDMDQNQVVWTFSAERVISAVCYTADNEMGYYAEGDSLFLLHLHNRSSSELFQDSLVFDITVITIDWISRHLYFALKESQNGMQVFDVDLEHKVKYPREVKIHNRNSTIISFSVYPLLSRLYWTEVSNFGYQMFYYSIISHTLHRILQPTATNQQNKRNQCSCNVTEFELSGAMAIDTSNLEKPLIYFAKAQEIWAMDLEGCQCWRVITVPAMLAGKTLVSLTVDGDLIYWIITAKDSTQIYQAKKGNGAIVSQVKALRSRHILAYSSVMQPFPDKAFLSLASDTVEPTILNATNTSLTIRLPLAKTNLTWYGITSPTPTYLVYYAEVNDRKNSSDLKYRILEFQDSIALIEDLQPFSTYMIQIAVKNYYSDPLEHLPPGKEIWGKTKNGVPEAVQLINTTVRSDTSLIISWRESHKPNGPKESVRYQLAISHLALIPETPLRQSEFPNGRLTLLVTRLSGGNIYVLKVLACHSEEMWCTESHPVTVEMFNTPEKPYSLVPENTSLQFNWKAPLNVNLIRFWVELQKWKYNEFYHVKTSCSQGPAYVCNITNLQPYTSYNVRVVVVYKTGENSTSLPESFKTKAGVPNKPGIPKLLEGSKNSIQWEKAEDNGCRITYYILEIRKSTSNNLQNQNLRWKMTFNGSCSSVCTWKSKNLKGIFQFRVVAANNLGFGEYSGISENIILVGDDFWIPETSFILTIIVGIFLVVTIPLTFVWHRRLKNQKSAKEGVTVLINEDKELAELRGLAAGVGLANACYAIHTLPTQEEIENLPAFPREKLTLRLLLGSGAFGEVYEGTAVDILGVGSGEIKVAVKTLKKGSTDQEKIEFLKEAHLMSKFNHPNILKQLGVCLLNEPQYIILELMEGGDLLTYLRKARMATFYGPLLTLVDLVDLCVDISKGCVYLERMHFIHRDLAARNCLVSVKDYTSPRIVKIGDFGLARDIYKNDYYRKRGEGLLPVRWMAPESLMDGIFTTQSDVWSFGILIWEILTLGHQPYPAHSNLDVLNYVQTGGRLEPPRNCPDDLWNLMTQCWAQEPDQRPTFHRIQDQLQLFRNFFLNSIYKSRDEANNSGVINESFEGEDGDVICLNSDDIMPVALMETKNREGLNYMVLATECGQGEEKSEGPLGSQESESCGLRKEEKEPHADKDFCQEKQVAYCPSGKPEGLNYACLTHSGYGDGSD

[36] = target: STK33 (human) (UniProt Q9BYT3)
[37] = target: STK39 (human) (UniProt Q9UEW8)
[38] = target: TAOK2 (human) (UniProt Q9UL54)
[39] = target: TEK (human) (UniProt Q02763)
[40] = target: TGFBR2 (human) (UniProt P37173)
[41] = target: ULK1 (human) (UniProt O75385)
[42] = target: ULK2 (human) (UniProt Q8IYT8)

ADRBK1 (human), sequence (P25098 whole entry, looked up): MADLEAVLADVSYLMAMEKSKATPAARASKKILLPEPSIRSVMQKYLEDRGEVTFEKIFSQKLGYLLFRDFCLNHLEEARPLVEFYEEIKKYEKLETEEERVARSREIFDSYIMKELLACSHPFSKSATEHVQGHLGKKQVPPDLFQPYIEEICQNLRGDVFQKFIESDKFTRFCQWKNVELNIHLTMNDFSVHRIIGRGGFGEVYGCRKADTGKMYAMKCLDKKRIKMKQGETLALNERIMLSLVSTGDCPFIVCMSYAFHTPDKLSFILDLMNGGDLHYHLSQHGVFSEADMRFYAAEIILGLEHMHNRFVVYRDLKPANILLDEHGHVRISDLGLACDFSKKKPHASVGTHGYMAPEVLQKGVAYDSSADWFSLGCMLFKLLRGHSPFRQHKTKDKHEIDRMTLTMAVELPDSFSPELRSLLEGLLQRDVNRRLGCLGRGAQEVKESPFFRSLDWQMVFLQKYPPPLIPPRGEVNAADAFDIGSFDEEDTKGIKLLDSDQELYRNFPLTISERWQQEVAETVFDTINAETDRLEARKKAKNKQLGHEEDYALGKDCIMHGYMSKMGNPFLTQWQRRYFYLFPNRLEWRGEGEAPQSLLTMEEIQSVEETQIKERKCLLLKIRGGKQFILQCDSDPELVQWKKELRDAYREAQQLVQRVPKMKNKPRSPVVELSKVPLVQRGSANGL

## CCc1nc(-c2ccc(OC)cc2)[nH]c1-c1ccncc1
[1]
  residual activity: 86.5%
[2]
  residual activity: 101%
[3]
  residual activity: 99.9%
[4]
  residual activity: 93.4%
[5]
  residual activity: 97.5%
[6]
  residual activity: 91.8%
[7]
  residual activity: 102%
[8]
  residual activity: 101%
[9]
  residual activity: 95.8%
[10]
  residual activity: 96.1%
[11]
  residual activity: 85.8%
[12]
  residual activity: 100%
[13]
  residual activity: 116%
[14]
  residual activity: 93.5%
[15]
  residual activity: 99.3%
[16]
  residual activity: 101%
[17]
  residual activity: 55.9%
[18]
  residual activity: 108%
[19]
  residual activity: 97.4%
[20]
  residual activity: 105%
[21]
  residual activity: 96.7%
[22]
  residual activity: 105%
[23]
  residual activity: 88.1%
[24]
  residual activity: 97.2%
[25]
  residual activity: 110%
[26]
  residual activity: 92.1%
[27]
  residual activity: 99.8%
[28]
  residual activity: 106%
[29]
  residual activity: 97%
[30]
  residual activity: 103%
[31]
  residual activity: 107%
[32]
  residual activity: 97.1%
[33]
  residual activity: 81% and 91.2%
[34]
  residual activity: 88.5%
[35]
  residual activity: 91.8%
[36]
  residual activity: 101%
[37]
  residual activity: 94.2%
[38]
  residual activity: 98.2%
[39]
  residual activity: 99.1%
[40]
  residual activity: 140%
[41]
  residual activity: 84.5%
[42]
  residual activity: 98%

## COc1cc2c(cc1OC)-c1[nH]nc(Nc3cccc(F)c3)c1C2
[1]
  residual activity: 92.9%
[2]
  residual activity: 93%
[3]
  residual activity: 96.1%
[4]
  residual activity: 74.8%
[5]
  residual activity: 106%
[6]
  residual activity: 92.6%
[7]
  residual activity: 96.5%
[8]
  residual activity: 44.9%
[9]
  residual activity: 100%
[10]
  residual activity: 110%
[11]
  residual activity: 95.3%
[12]
  residual activity: 92.6%
[13]
  residual activity: 102%
[14]
  residual activity: 94.2%
[15]
  residual activity: 97.1%
[16]
  residual activity: 101%
[17]
  residual activity: 84.8%
[18]
  residual activity: 96.6%
[19]
  residual activity: 85.5%
[20]
  residual activity: 99.8%
[21]
  residual activity: 93.9%
[22]
  residual activity: 99.9%
[23]
  residual activity: 90%
[24]
  residual activity: 85.1%
[25]
  residual activity: 72.1%
[26]
  residual activity: 78.7%
[27]
  residual activity: 100%
[28]
  residual activity: 98.8%
[29]
  residual activity: 89%
[30]
  residual activity: 102%
[31]
  residual activity: 99.7%
[32]
  residual activity: 93.1%
[33]
  residual activity: 104% and 95.2%
[34]
  residual activity: 81%
[35]
  residual activity: 97.5%
[36]
  residual activity: 99.5%
[37]
  residual activity: 105%
[38]
  residual activity: 97.1%
[39]
  residual activity: 92.5%
[40]
  residual activity: 100%
[41]
  residual activity: 103%
[42]
  residual activity: 97.3%
